From patent US9902736B2, “1-oxo/acylation-14-acylated oridonin derivative, preparation method therefor and application thereof” (HANGZHOU BENSHENG PHARMACEUTICAL CO., LTD., priority 2012, dated 2018)
Converted amounts (≈) assume the structure as drawn.

The molecules below were run on K562/ADR (assay: Leukemia cell growth inhibition, MTT, 72 h). Conditions: Homo sapiens.
Type: cell-based
How it was run: (§1)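 Viability determined by MTT following a 72-hour, 37° C, 5% CO2 incubation with test compounds at different concentrations, added the day after seeding 6000 cells per well.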

| IC50 [µg/mL] | IC90 [µg/mL] | SMILES |
| --- | --- | --- |
| 0.7 (≈ 1.3 µM) | 2.17 (≈ 4.04 µM) | C=C1C(=O)[C@]23[C@H](OC(=O)/C=C/c4ccccc4)[C@H]1CC[C@H]2[C@@]12CO[C@@]3(O)[C@@H](O)[C@@H]1C(C)(C)CC[C@@H]2OC(C)=O [BS-OR-094] |

These molecules were tested on Kasumi-1 (assay: Leukemia cell growth inhibition, MTT, 72 h). Conditions: Homo sapiens.
Type: cell-based
How it was run: as §1

| IC50 [µg/mL] | IC90 [µg/mL] | SMILES |
| --- | --- | --- |
| 0.72 (≈ 1.34 µM) | 1.72 (≈ 3.21 µM) | C=C1C(=O)[C@]23[C@H](OC(=O)/C=C/c4ccccc4)[C@H]1CC[C@H]2[C@@]12CO[C@@]3(O)[C@@H](O)[C@@H]1C(C)(C)CC[C@@H]2OC(C)=O [BS-OR-094] |

These molecules were tested on H9 (assay: Leukemia cell growth inhibition, MTT, 72 h). Conditions: Homo sapiens, H9; 72 h, MTT.
Type: cell-based, human
How it was run: as §1

| IC50 [µg/mL] | IC90 [µg/mL] | SMILES |
| --- | --- | --- |
| 0.19 (≈ 0.354 µM) | 0.49 (≈ 0.913 µM) | C=C1C(=O)[C@]23[C@H](OC(=O)/C=C/c4ccccc4)[C@H]1CC[C@H]2[C@@]12CO[C@@]3(O)[C@@H](O)[C@@H]1C(C)(C)CC[C@@H]2OC(C)=O [BS-OR-094] |

These molecules were tested on Jurkat (assay: Leukemia cell growth inhibition, MTT, 72 h). Conditions: Homo sapiens, Jurkat; 72 h, MTT.
Type: cell-based, human
How it was run: as §1

| IC50 [µg/mL] | IC90 [µg/mL] | SMILES |
| --- | --- | --- |
| 0.65 (≈ 1.21 µM) | 2.68 (≈ 4.99 µM) | C=C1C(=O)[C@]23[C@H](OC(=O)/C=C/c4ccccc4)[C@H]1CC[C@H]2[C@@]12CO[C@@]3(O)[C@@H](O)[C@@H]1C(C)(C)CC[C@@H]2OC(C)=O [BS-OR-094] |

Each molecule was assayed on NB4 (assay: Leukemia cell growth inhibition, MTT, 72 h). Conditions: Homo sapiens, NB-4; 72 h, MTT.
Type: cell-based, human
How it was run: as §1

| IC50 [µg/mL] | IC90 [µg/mL] | SMILES |
| --- | --- | --- |
| 0.1 (≈ 0.186 µM) | 0.49 (≈ 0.913 µM) | C=C1C(=O)[C@]23[C@H](OC(=O)/C=C/c4ccccc4)[C@H]1CC[C@H]2[C@@]12CO[C@@]3(O)[C@@H](O)[C@@H]1C(C)(C)CC[C@@H]2OC(C)=O [BS-OR-094] |

Each molecule was assayed on RPMI 8226 (assay: Multiple myeloma cell growth inhibition, MTT, 72 h). Conditions: Homo sapiens.
Type: cell-based
How it was run: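 Growth inhibition by MTT after 72 h drug exposure (37 °C, 5% CO2) over a concentration range of oridonin derivatives. RPMI 8226 cells plated at 6000 per well and dosed the following day.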

| IC50 [µg/mL] | IC90 [µg/mL] | SMILES |
| --- | --- | --- |
| 0.49 (≈ 0.913 µM) | 1.75 (≈ 3.26 µM) | C=C1C(=O)[C@]23[C@H](OC(=O)/C=C/c4ccccc4)[C@H]1CC[C@H]2[C@@]12CO[C@@]3(O)[C@@H](O)[C@@H]1C(C)(C)CC[C@@H]2OC(C)=O [BS-OR-094] |

What follows are molecules tested on CNE (assay: Solid tumor cell growth inhibition, MTT, 72 h). Conditions: Homo sapiens, CNE; 72 h, MTT.
Type: cell-based, human
How it was run: (§2)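 After overnight-scale attachment (24 hours, 37° C, 5% CO2) in 10% FBS high-glucose DMEM, wells holding 6000 cells were dosed with varying compound concentrations and later scored for viable cell concentration.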

| IC50 [µg/mL] | IC90 [µg/mL] | SMILES |
| --- | --- | --- |
| 1.32 (≈ 2.46 µM) | 5.04 (≈ 9.39 µM) | C=C1C(=O)[C@]23[C@H](OC(=O)/C=C/c4ccccc4)[C@H]1CC[C@H]2[C@@]12CO[C@@]3(O)[C@@H](O)[C@@H]1C(C)(C)CC[C@@H]2OC(C)=O [BS-OR-094] |

Each molecule was assayed on Hela (assay: Solid tumor cell growth inhibition, MTT, 72 h). Conditions: Homo sapiens, HeLa; 72 h, MTT.
Type: cell-based, human
How it was run: as §2

| IC50 [µg/mL] | IC90 [µg/mL] | SMILES |
| --- | --- | --- |
| 1.54 (≈ 2.87 µM) | 4.45 (≈ 8.29 µM) | C=C1C(=O)[C@]23[C@H](OC(=O)/C=C/c4ccccc4)[C@H]1CC[C@H]2[C@@]12CO[C@@]3(O)[C@@H](O)[C@@H]1C(C)(C)CC[C@@H]2OC(C)=O [BS-OR-094] |

These molecules were tested on Hep-2 (assay: Solid tumor cell growth inhibition, MTT, 72 h). Conditions: Homo sapiens, HEp-2; 72 h, MTT.
Type: cell-based, human
How it was run: as §2

| IC50 [µg/mL] | IC90 [µg/mL] | SMILES |
| --- | --- | --- |
| 1.68 (≈ 3.13 µM) | 7.46 (≈ 13.9 µM) | C=C1C(=O)[C@]23[C@H](OC(=O)/C=C/c4ccccc4)[C@H]1CC[C@H]2[C@@]12CO[C@@]3(O)[C@@H](O)[C@@H]1C(C)(C)CC[C@@H]2OC(C)=O [BS-OR-094] |

Each molecule was assayed on MGC-803 (assay: Solid tumor cell growth inhibition, MTT, 72 h). Conditions: Homo sapiens, MGC-803; 72 h, MTT.
Type: cell-based, human
How it was run: as §2

| IC50 [µg/mL] | IC90 [µg/mL] | SMILES |
| --- | --- | --- |
| 1.39 (≈ 2.59 µM) | 12.1 (≈ 22.5 µM) | C=C1C(=O)[C@]23[C@H](OC(=O)/C=C/c4ccccc4)[C@H]1CC[C@H]2[C@@]12CO[C@@]3(O)[C@@H](O)[C@@H]1C(C)(C)CC[C@@H]2OC(C)=O [BS-OR-094] |

Each molecule was assayed on A549 (assay: Solid tumor cell growth inhibition, MTT, 72 h). Conditions: Homo sapiens.
Type: cell-based
How it was run: as §2

| IC50 [µg/mL] | IC90 [µg/mL] | SMILES |
| --- | --- | --- |
| 2.87 (≈ 5.35 µM) | 9.95 (≈ 18.5 µM) | C=C1C(=O)[C@]23[C@H](OC(=O)/C=C/c4ccccc4)[C@H]1CC[C@H]2[C@@]12CO[C@@]3(O)[C@@H](O)[C@@H]1C(C)(C)CC[C@@H]2OC(C)=O [BS-OR-094] |

These molecules were tested on Becap-37 (assay: Solid tumor cell growth inhibition, MTT, 72 h). Conditions: Homo sapiens.
Type: cell-based
How it was run: as §2

| IC50 [µg/mL] | IC90 [µg/mL] | SMILES |
| --- | --- | --- |
| 1.15 (≈ 2.14 µM) | 3.31 (≈ 6.17 µM) | C=C1C(=O)[C@]23[C@H](OC(=O)/C=C/c4ccccc4)[C@H]1CC[C@H]2[C@@]12CO[C@@]3(O)[C@@H](O)[C@@H]1C(C)(C)CC[C@@H]2OC(C)=O [BS-OR-094] |

What follows are molecules tested on CaEs-17 (assay: Solid tumor cell growth inhibition, MTT, 72 h). Conditions: Homo sapiens, CaEs17.
Type: cell-based
How it was run: as §2

| IC50 [µg/mL] | IC90 [µg/mL] | SMILES |
| --- | --- | --- |
| 0.94 (≈ 1.75 µM) | 6.26 (≈ 11.7 µM) | C=C1C(=O)[C@]23[C@H](OC(=O)/C=C/c4ccccc4)[C@H]1CC[C@H]2[C@@]12CO[C@@]3(O)[C@@H](O)[C@@H]1C(C)(C)CC[C@@H]2OC(C)=O [BS-OR-094] |

The molecules below were run on Hep G2 (assay: Solid tumor cell growth inhibition, MTT, 72 h). Conditions: Homo sapiens, HepG2.
Type: cell-based
How it was run: as §2

| IC50 [µg/mL] | IC90 [µg/mL] | SMILES |
| --- | --- | --- |
| 1.42 (≈ 2.65 µM) | 7.47 (≈ 13.9 µM) | C=C1C(=O)[C@]23[C@H](OC(=O)/C=C/c4ccccc4)[C@H]1CC[C@H]2[C@@]12CO[C@@]3(O)[C@@H](O)[C@@H]1C(C)(C)CC[C@@H]2OC(C)=O [BS-OR-094] |

The molecules below were run on MG-63 (assay: Solid tumor cell growth inhibition, MTT, 72 h). Conditions: Homo sapiens.
Type: cell-based
How it was run: as §2

| IC50 [µg/mL] | IC90 [µg/mL] | SMILES |
| --- | --- | --- |
| 0.47 (≈ 0.876 µM) | 1 (≈ 1.86 µM) | C=C1C(=O)[C@]23[C@H](OC(=O)/C=C/c4ccccc4)[C@H]1CC[C@H]2[C@@]12CO[C@@]3(O)[C@@H](O)[C@@H]1C(C)(C)CC[C@@H]2OC(C)=O [BS-OR-094] |

The molecules below were run on PANC-1 (assay: Solid tumor cell growth inhibition, MTT, 72 h). Conditions: Homo sapiens.
Type: cell-based
How it was run: as §2

| IC50 [µg/mL] | IC90 [µg/mL] | SMILES |
| --- | --- | --- |
| 1.82 (≈ 3.39 µM) | 9.91 (≈ 18.5 µM) | C=C1C(=O)[C@]23[C@H](OC(=O)/C=C/c4ccccc4)[C@H]1CC[C@H]2[C@@]12CO[C@@]3(O)[C@@H](O)[C@@H]1C(C)(C)CC[C@@H]2OC(C)=O [BS-OR-094] |

Each molecule was assayed on PC-3 (assay: Solid tumor cell growth inhibition, MTT, 72 h). Conditions: Homo sapiens.
Type: cell-based
How it was run: as §2

| IC50 [µg/mL] | IC90 [µg/mL] | SMILES |
| --- | --- | --- |
| 1.66 (≈ 3.09 µM) | 4.52 (≈ 8.42 µM) | C=C1C(=O)[C@]23[C@H](OC(=O)/C=C/c4ccccc4)[C@H]1CC[C@H]2[C@@]12CO[C@@]3(O)[C@@H](O)[C@@H]1C(C)(C)CC[C@@H]2OC(C)=O [BS-OR-094] |

Each molecule was assayed on RKO (assay: Solid tumor cell growth inhibition, MTT, 72 h). Conditions: Homo sapiens.
Type: cell-based
How it was run: as §2

| IC50 [µg/mL] | IC90 [µg/mL] | SMILES |
| --- | --- | --- |
| 0.38 (≈ 0.708 µM) | 0.75 (≈ 1.4 µM) | C=C1C(=O)[C@]23[C@H](OC(=O)/C=C/c4ccccc4)[C@H]1CC[C@H]2[C@@]12CO[C@@]3(O)[C@@H](O)[C@@H]1C(C)(C)CC[C@@H]2OC(C)=O [BS-OR-094] |

These molecules were tested on SK-OV-3 (assay: Solid tumor cell growth inhibition, MTT, 72 h). Conditions: Homo sapiens, SK-OV-3; 72 h, MTT; read-out: IC50 SK-OV-3.
Type: cell-based
How it was run: as §2

| IC50 [µg/mL] | SMILES |
| --- | --- |
| 1.66 (≈ 3.09 µM) | C=C1C(=O)[C@]23[C@H](OC(=O)/C=C/c4ccccc4)[C@H]1CC[C@H]2[C@@]12CO[C@@]3(O)[C@@H](O)[C@@H]1C(C)(C)CC[C@@H]2OC(C)=O [BS-OR-094] |

Same assay, conditions: Homo sapiens, SK-OV-3; 72 h, MTT; read-out: IC90 SK-OV-3

| IC90 [µg/mL] | SMILES |
| --- | --- |
| 4.52 (≈ 8.42 µM) | C=C1C(=O)[C@]23[C@H](OC(=O)/C=C/c4ccccc4)[C@H]1CC[C@H]2[C@@]12CO[C@@]3(O)[C@@H](O)[C@@H]1C(C)(C)CC[C@@H]2OC(C)=O [BS-OR-094] |

The molecules below were run on U87-MG (assay: Solid tumor cell growth inhibition, MTT, 72 h). Conditions: Homo sapiens, U-87 MG.
Type: cell-based
How it was run: as §2

| IC50 [µg/mL] | IC90 [µg/mL] | SMILES |
| --- | --- | --- |
| 0.6 (≈ 1.12 µM) | 1.86 (≈ 3.47 µM) | C=C1C(=O)[C@]23[C@H](OC(=O)/C=C/c4ccccc4)[C@H]1CC[C@H]2[C@@]12CO[C@@]3(O)[C@@H](O)[C@@H]1C(C)(C)CC[C@@H]2OC(C)=O [BS-OR-094] |
